For this experiment, the system named is S. thermophilus ComR containing five mutations (R92G, V205A, S248G, S289K, and I290T). The experiment can be described thus: GFP signal in E. coli expressing five-mutation ComR. The experiment is classed as cell-based. To be noted: 100 µM peptide, GFP signal (Fig. S3). An excerpt:
The selection of mutant ComRs with altered specificity highlighted the utility of the screening system built in E. coli. We attempted to further validate this screening system by cloning a version of S. thermophilus ComR containing five mutations (R92G, V205A, S248G, S289K, and I290T), which was reported to have altered specificity for the 8 amino-acid long XIP from S. vestibularis (VPFFMIYY) ([20]).
ComR sensor circuits were constructed on plasmid pACYC184 (American Type Culture Collection #37033) such that ComR activation promoted GFP expression. This was done by assembling synthetic dsDNA fragments (Integrated DNA Technology) using NEBuilder® HiFi DNA Assembly Master Mix (NEB, E2621S). The full sequence of plasmid pAC-J23107*-ComR, on which the ComR mutant library was made is included in supplemental materials. The ComR mutant (K100NNK) library was created by PCR amplifying all but the K100 codon and then assembling it with degenerate oligos (Integrated DNA Technology) using NEBuilder® HiFi DNA Assembly Master Mix (NEB, E2621S). […] Bacteria were incubated in a large radius shaker (Eppendorf S441) at 37°C for 9 hours, then GFP fluorescence was read using a TECAN Spark 20M plate reader. […]

As to “VPFFMIYY [S. vestibularis XIP, 8 amino-acid long XIP from S. vestibularis (VPFFMIYY)]”, the “GFP signal of five-mutation ComR with S. vestibularis XIP” value is listed as “only a slight increase in GFP signal”.

The record behind these values is paper PMC11237612, “Mutation of the peptide-regulated transcription factor ComR for amidated peptide specificity and heterologous function in Lactiplantibacillus plantarum WCFS1” (Microbiology Spectrum, 2024).
